Experimental data from the RepoRT retention time repository (doi:10.1016/j.foodchem.2021.129757).

Tests used:
Settings in all cases: stereoisomer not certain
[1] = RP, 150 × 2.1 mm, 2.6 µm, 40 °C, 0.35 mL/min, estimated dead time 0.94 min; A: water + 0.1% formic acid, pH 3; B: acetonitrile + 0.1% formic acid, pH 3; gradient (min/%B) 0/0 1/0 12.5/100 14/100 14.2/0 15/0
[2] = RP, 150 × 2.1 mm, 2.6 µm, 40 °C, 0.35 mL/min, estimated dead time 0.94 min; A: water + 0.1% formic acid, pH 3; B: acetonitrile + 0.1% formic acid, pH 3; gradient (min/%B) 0/0 1/5 7/45 8.5/80 10.5/80 11/5 12/5
[3] = RP, Waters ACQUITY UPLC BEH C18, 100 × 2.1 mm, 1.7 µm, 65 °C, 0.4 mL/min, estimated dead time 0.55 min; A: water + 0.1% formic acid, pH 3; B: 80% acetonitrile + 20% acetone + 0.1% formic acid, pH 3; gradient (min/%B) 0/0 5/100 5.5/0 6/0
[4] = RP, Agilent ZORBAX RRHD Eclipse Plus C18, 50 × 2.1 mm, 1.8 µm, 30 °C, 0.4 mL/min, estimated dead time 0.28 min; A: water + 0.1% formic acid, pH 3; B: acetonitrile + 0.1% formic acid, pH 3; gradient (min/%B) 0/1 5/10 8/25 9.1/99 10/99 12/1
[5] = RP, Agilent ZORBAX RRHD Eclipse Plus C18, 50 × 2.1 mm, 1.8 µm, 30 °C, 0.4 mL/min, estimated dead time 0.28 min; A: water + 0.1% formic acid, pH 3; B: acetonitrile + 0.1% formic acid, pH 3; gradient (min/%B) 0/1 5/10 8/25 9.1/99 10/99 12/99
[6] = RP, Phenomenex Kinetex EVO C18, 100 × 2.1 mm, 2.6 µm, 40 °C, 0.4 mL/min, estimated dead time 0.55 min; A: water + 0.2% formic acid; B: acetonitrile + 0.2% formic acid; gradient (min/%B) 0/5 0.5/5 7/95 8/95 8.5/5 12/5
[7] = RP, Waters ACQUITY UPLC HSS T3, 100 × 2.1 mm, 50 °C; A: water + 0.1% formic acid, pH 3; B: 30% methanol + 70% acetonitrile + 0.1% formic acid, pH 3; gradient (min/%B) 0/5 1/8 2/15 3/40 4/70 4.5/100 5/100 6.4/100 6.6/5 6.8/5 7/5
[8] = RP, Agilent ZORBAX Eclipse XDB-C18, 100 × 2.1 mm, 1.8 µm, 50 °C, 0.4 mL/min, estimated dead time 0.55 min; A: water + 0.1% formic acid, pH 3; B: methanol + 0.1% formic acid, pH 3; gradient (min/%B) 0/2 10/100 14.5/100 14.51/2 16.5/2
[9] = RP, Agilent InfinityLab Poroshell 120 EC-C18, 100 × 3 mm, 2.7 µm, 25 °C, 0.4 mL/min, estimated dead time 1.1 min; A: water + 0.1% formic acid, pH 3; B: acetonitrile + 0.1% formic acid, pH 3; gradient (min/%B) 0/5 10/25 20/40 24/90 25/90 26/5 30/5
[10] = RP, Phenomenex Synergi Hydro-RP, 250 × 2 mm, 4 µm, 25 °C, 0.2 mL/min, estimated dead time 2.5 min; A: water + 0.1% formic acid, pH 3; B: acetonitrile + 0.1% formic acid, pH 3; gradient (min/%B) 0/0.5 7/0.5 12/12.5 25/16.3 47/35 48/65 50/65 50.1/0.5
[11] = RP, Waters ACQUITY UPLC BEH Shield RP18, 150 × 2.1 mm, 1.7 µm, 40 °C, 0.4 mL/min, estimated dead time 0.83 min; A: water + 0.1% formic acid, pH 3; B: acetonitrile + 0.1% formic acid, pH 3; gradient (min/%B) 0/0 30/50 31/100 37/100 37.1/0

Row | SMILES | LC retention time [4] [min] | LC retention time [5] [min] | LC retention time [6] [min] | also measured
1 | O=C(O)CNC(=O)c1ccco1 [2-Furoylglycine] | – | – | – | LC retention time [1]: 2.51 min; LC retention time [2]: 2.35 min; LC retention time [3]: 1.51 min
2 | O=Cc1ccc(O)c(O)c1 [3,4-Dihydroxybenzaldehyde] | 4.12 | 3.73 | 2.18 | –
3 | O=C(O)CCc1c[nH]c2ccccc12 [3-Indolepropionic acid] | – | – | – | LC retention time [1]: 7.09 min; LC retention time [2]: 7.34 min; LC retention time [7]: 3.76 min; LC retention time [8]: 5.54 min; LC retention time [3]: 2.64 min
4 | COc1cccc(O)c1O [3-Methoxycatechol] | – | – | – | LC retention time [1]: 4.79 min; LC retention time [2]: 4.56 min; LC retention time [8]: 3.2 min
5 | O=C1CCC(Cc2ccc(O)c(O)c2)O1 (configuration not stated) [5-(3',4'-Dihydroxyphenyl)-gamma-valerolactone] | – | – | 4.13 | –
6 | O=C1CCC(Cc2cc(O)cc(O)c2)O1 (configuration not stated) [5-(3',5'-Dihydroxyphenyl)-gamma-valerolactone] | – | – | 3.72 | –
7 | O=C1CCC(Cc2ccc(O)c(OS(=O)(=O)O)c2)O1 (configuration not stated) [5-(4'-Hydroxyphenyl)-gamma-valerolactone-3'-sulfate] | – | – | 4.64 | –
8 | O=C1CCC(Cc2cc(O)cc(OC3OC(C(=O)O)C(O)C(O)C3O)c2)O1 (configuration not stated) [5-(5'-Hydroxyphenyl)-gamma-valerolactone-3'-glucuronide] | – | – | 2.34 | –
9 | O=C1CCC(Cc2cccc(OC3OC(C(=O)O)C(O)C(O)C3O)c2)O1 (configuration not stated) [5-Phenyl-gamma-valerolactone-3'-glucuronide] | – | – | 4.31 | –
10 | O=C1CCC(Cc2cccc(OS(=O)(=O)O)c2)O1 (configuration not stated) [5-Phenyl-gamma-valerolactone-3'-sulfate] | – | – | 4.96 | –
11 | O=C(O)C=Cc1ccc(OC2OC(C(=O)O)C(O)C(O)C2O)c(O)c1 (configuration not stated) [Caffeic acid-4-glucuronide] | 3.98 | 1.78 | 2.45 | –
12 | COc1ccc(CCC(=O)O)cc1OC1OC(C(=O)O)C(O)C(O)C1O (configuration not stated) [Dihydro isoferulic acid-3-O-glucuronide] | 6.49 | 6.53 | 4.22 | –
13 | O=C(O)CCc1ccc(O)c(OC2OC(C(=O)O)C(O)C(O)C2O)c1 (configuration not stated) [Dihydrocaffeic acid-3-O-glucuronide] | 5.11 | 3.94 | 3.22 | –
14 | COc1cc(C=CC(=O)O)ccc1OS(=O)(=O)O [Ferulic acid 4-O-sulfate] | 6.22 | 4.67 | 4.59 | –
15 | COc1cc(C=CC(=O)O)ccc1OC1OC(C(=O)O)C(O)C(O)C1O (configuration not stated) [Ferulic acid-4-O-glucuronide] | 4.81 | 3.24 | 3.62 | –
16 | O=C(O)c1ccc(OC2OC(C(=O)O)C(O)C(O)C2O)cc1 (configuration not stated) [Hydroxybenzoic acid-4-glucuronide] | – | – | 1.06 | –

Row | SMILES | LC retention time [4] [min] | LC retention time [5] [min] | LC retention time [6] [min] | also measured
17 | O=C(O)c1ccc(OS(=O)(=O)O)cc1 [Hydroxybenzoic acid-4-sulfate] | – | – | 2.55 | –
18 | COc1ccc(C=CC(=O)O)cc1OS(=O)(=O)O [Isoferulic acid 3-O-sulfate] | 6.76 | 5.94 | 4.79 | –
19 | COc1cc(-c2oc3cc(O)cc(O)c3c(=O)c2O)ccc1OC1OC(C(=O)O)C(O)C(O)C1O (configuration not stated) [Isorhamnetin 4'-O-glucuronide] | – | – | – | LC retention time [1]: 6.03 min; LC retention time [2]: 6.21 min; LC retention time [7]: 3.58 min
20 | COc1ccc(C(=O)O)cc1OS(=O)(=O)O [Isovanillic acid-3-O-sulfate] | 3.98 | 3.47 | 3.68 | –
21 | COc1ccc(C(=O)O)cc1OC1OC(C(=O)O)C(O)C(O)C1O (configuration not stated) [Isovanillic acid-3-glucuronide] | – | – | 2.34 | –
22 | CC1OC(OCC2OC(Oc3c(-c4ccc(O)cc4)oc4cc(O)cc(O)c4c3=O)C(O)C(O)C2O)C(O)C(O)C1O (configuration not stated) [Kaempferol 3-O-rutinoside] | – | – | – | LC retention time [1]: 5.78 min; LC retention time [2]: 5.92 min; LC retention time [10]: 37 min
23 | O=c1c(OC2OC(CO)C(O)C(O)C2O)c(-c2ccc(O)cc2)oc2cc(O)cc(O)c12 (configuration not stated) [Kaempferol-3-O-glucoside] | – | – | – | LC retention time [1]: 5.95 min; LC retention time [2]: 6.11 min; LC retention time [11]: 14.7 min
24 | CCC=CCC1C(=O)CCC1CC(=O)OC (configuration not stated) [Methyl jasmonate] | – | – | – | LC retention time [1]: 7.64 min; LC retention time [2]: 7.97 min; LC retention time [8]: 7.77 min
25 | O=C1CC(c2ccc(OC3OC(C(=O)O)C(O)C(O)C3O)cc2)Oc2cc(O)cc(O)c21 (configuration not stated) [Naringenin-4'-O-glucuronide] | – | – | 5.18 | –
26 | O=C(O)c1ccc(O)c(OC2OC(C(=O)O)C(O)C(O)C2O)c1 (configuration not stated) [Protocatechuic acid-3-O-glucuronide] | 2.8 | 1.12 | 1.44 | –
27 | O=C(O)c1ccc(OC2OC(C(=O)O)C(O)C(O)C2O)c(O)c1 (configuration not stated) [Protocatechuic acid-4-glucuronide] | – | – | 1.03 | –
28 | O=C(O)C1OC(Oc2ccc(C=Cc3cc(O)cc(O)c3)cc2)C(O)C(O)C1O (configuration not stated) [Resveratrol 4-O-glucuronide] | – | – | 4.64 | LC retention time [9]: 9.05 min
29 | O=c1oc2c(O)c(O)ccc2c2cc(O)c(O)cc12 [Urolithin  D] | – | – | 4.68 | LC retention time [9]: 8.24 min
30 | O=C(O)C1OC(Oc2ccc3c(c2)oc(=O)c2ccccc23)C(O)C(O)C1O (configuration not stated) [Urolithin B-3-O-glucuronide] | – | – | 5.23 | LC retention time [9]: 11.6 min
31 | O=C(O)c1ccc(O)c(OS(=O)(=O)O)c1 [protocatechuic acid-3-O-sulfate] | – | – | 2.38 | –

More lines, main results first:

Row | LC retention time [4] [min] | LC retention time [5] [min] | LC retention time [6] [min] | SMILES | also measured
32 | 6.83 | 6.69 | – | O=C(O)CNC(=O)c1ccccc1O [2-Hydroxyhippuric acid] | LC retention time [1]: 5.5 min; LC retention time [2]: 5.38 min
33 | 2.97 | 1.37 | – | O=C(NC(O)C(=O)O)c1ccccc1 (stereo not drawn) [Alpha-hydroxyhippuric acid] | LC retention time [1]: 3.62 min; LC retention time [2]: 3.34 min
34 | 5.08 | 2.83 | 4.04 | O=C(O)CCc1ccc(O)c(OS(=O)(=O)O)c1 [Dihydrocaffeic acid-3-O-sulfate] | –
35 | 5.86 | 4.05 | 4.36 | COc1cc(CCC(=O)O)ccc1OS(=O)(=O)O [Dihydroferulic acid-4-O-Sulfate] | –
36 | – | – | 4.33 | COc1cc(C=CC(=O)NCC(=O)O)ccc1O [Feruloylglycine] | –
37 | – | – | 5.32 | COc1ccc(C2CC(=O)c3c(O)cc(O)cc3O2)cc1OC1OC(C(=O)O)C(O)C(O)C1O (configuration not stated) [Hesperetin 3'-O-glucuronide] | LC retention time [9]: 12.2 min
38 | – | – | 5.12 | O=C1CC(c2ccc(O)cc2)Oc2cc(OC3OC(C(=O)O)C(O)C(O)C3O)cc(O)c21 (configuration not stated) [Naringenin-7-O-glucuronide] | –
39 | – | – | 4.85 | O=C(O)C1OC(Oc2cc(O)cc(C=Cc3ccc(O)cc3)c2)C(O)C(O)C1O (configuration not stated) [Resveratrol 3-O-glucuronide] | LC retention time [9]: 11 min
40 | – | – | 5.89 | O=S(=O)(O)Oc1cc(O)cc(C=Cc2ccc(O)cc2)c1 [Resveratrol 3-O-sulfate] | LC retention time [9]: 8.93 min
41 | – | – | 5.11 | O=c1oc2cc(O)ccc2c2cc(O)c(O)cc12 [Urolithin C] | LC retention time [9]: 10.3 min
